Measured values reported in patent US12077503B2, “Substituted cyclic amides and their use as herbicides” (FMC CORPORATION, priority 2015, dated 2024).

How the values were obtained:
Assay type in all cases: in vivo
[1] = tested on: ryegrass, Italian (Italian ryegrass, Lolium multiflorum); test: Test A postemergence; conditions: Lolium multiflorum, post-emergence, 240 h
In short: (§1)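 Preemergence soil spray on seeded pots or post-emergence spray on 1–2 leaf plants, in loam–sand blend. Greenhouse ~10 d. Visual rating 0–100 against untreated plants.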

Kochia (Kochia scoparia) [2] = test: Test A postemergence; conditions: Bassia scoparia, post-emergence, 240 h
In short: as §1

[3] = tested on: blackgrass (Alopecurus myosuroides); test: Test A postemergence; conditions: Alopecurus myosuroides, post-emergence, 240 h
In short: as §1

[4] = tested on: wheat (Triticum aestivum); test: Test A postemergence; conditions: Triticum aestivum, post-emergence, 240 h
In short: as §1

[5] = tested on: pigweed (Amaranthus retroflexus); test: Test A postemergence; conditions: Amaranthus retroflexus, post-emergence, 240 h
In short: as §1

[6] = tested on: Galium (catchweed bedstraw, Galium aparine); test: Test A postemergence; conditions: Galium, post-emergence, 240 h
In short: as §1

corn (Zea mays) = test: Test A postemergence; conditions: Zea mays, post-emergence, 240 h
In short: as §1

[7] = tested on: giant foxtail (Setaria faberii); test: Test A postemergence; conditions: Setaria faberi, post-emergence, 240 h
In short: as §1

[8] = tested on: barnyardgrass (Echinochloa crus-galli); test: Test A postemergence; conditions: Echinochloa crus-galli, post-emergence, 240 h
In short: as §1

[9] = tested on: ragweed (common ragweed, Ambrosia elatior); test: Test A postemergence; conditions: Ambrosia artemisiifolia, post-emergence, 240 h
In short: as §1

[10] = tested on: ryegrass, Italian (Italian ryegrass, Lolium multiflorum); test: Test A preemergence; conditions: Lolium multiflorum, pre-emergence, 240 h, 0 to 100 scale where 0 is no effect and 100 is complete control, read-out: Ryegrass, Italian plant response rating
In short: as §1

Kochia (Kochia scoparia) [11] = test: Test A preemergence; conditions: Bassia scoparia, pre-emergence, 240 h, 0 to 100 scale where 0 is no effect and 100 is complete control, read-out: Kochia plant response rating
In short: as §1

[12] = tested on: pigweed (Amaranthus retroflexus); test: Test A preemergence; conditions: Amaranthus retroflexus, pre-emergence, 240 h, 0 to 100 scale where 0 is no effect and 100 is complete control, read-out: Pigweed plant response rating
[13] = tested on: giant foxtail (Setaria faberii); test: Test A preemergence; conditions: Setaria faberi, pre-emergence, 240 h, 0 to 100 scale where 0 is no effect and 100 is complete control, read-out: Foxtail, Giant plant response rating
In short: as §1

[14] = tested on: barnyardgrass (Echinochloa crus-galli); test: Test A preemergence; conditions: Echinochloa crus-galli, pre-emergence, 240 h, 0 to 100 scale where 0 is no effect and 100 is complete control, read-out: Barnyardgrass plant response rating
In short: as §1

[15] = tested on: ragweed (common ragweed, Ambrosia elatior); test: Test A preemergence; conditions: Ambrosia artemisiifolia, pre-emergence, 240 h, 0 to 100 scale where 0 is no effect and 100 is complete control, read-out: Ragweed plant response rating
In short: as §1

[16] = tested on: sedge, umbrella (small-flower umbrella sedge, Cyperus difformis); test: Test B flooded paddy test; conditions: Cyperus difformis, 250 g ai/ha, Flood; 0 to 100 scale where 0 is no effect and 100 is complete control; read-out: Sedge, Umbrella plant response rating
In short: (§2)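 Rating scale 0–100 (visual, vs untreated controls) after a 13–15 d greenhouse period; application to the flood layer, 3 cm above soil and maintained; plants at 2-leaf stage when treated.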

[17] = tested on: ducksalad (Heteranthera limosa); test: Test B flooded paddy test; conditions: Heteranthera limosa, 250 g ai/ha, Flood; 0 to 100 scale where 0 is no effect and 100 is complete control; read-out: Ducksalad plant response rating
In short: as §2

rice (Oryra sativa) = test: Test B flooded paddy test; conditions: Oryza sativa, 250 g ai/ha, Flood; 0 to 100 scale where 0 is no effect and 100 is complete control; read-out: Rice plant response rating
In short: as §2

[18] = tested on: barnyardgrass (Echinochloa crus-galli); test: Test B flooded paddy test; conditions: Echinochloa crus-galli, 250 g ai/ha, Flood; 0 to 100 scale where 0 is no effect and 100 is complete control; read-out: Barnyardgrass plant response rating
In short: as §2

[19] = 125 g ai/ha, preemergence, approx. 10 d

Work on `COc1cccc([C@H]2CN(C)C(=O)[C@@H]2C(=O)Nc2cccc(F)c2F)c1F` [Compound 1072] yielded a pest or weed control at 125 g/ha ([1]; 125 g ai/ha, postemergence, visual injury on 0 to 100 scale (0 no effect, 100 complete control), approx. 10 d, read-out: Ryegrass, Italian plant response rating) of 30%, a pest or weed control at 31 g/ha ([1]; Postemergence, 31 g ai/ha, visual injury after approx. 10 d, 0 to 100 scale, 0 no effect, 100 complete control, read-out: Plant response rating, Ryegrass, Italian) of 0% and a pest or weed control at 125 g/ha (Kochia (Kochia scoparia) [2]; 125 g ai/ha, postemergence, visual injury on 0 to 100 scale (0 no effect, 100 complete control), approx. 10 d, read-out: Kochia plant response rating) of 0%. The pest or weed control at 31 g/ha (Kochia (Kochia scoparia) [2]; Postemergence, 31 g ai/ha, visual injury after approx. 10 d, 0 to 100 scale, 0 no effect, 100 complete control, read-out: Plant response rating, Kochia) was 0%, the pest or weed control at 125 g/ha ([3]; 125 g ai/ha, postemergence, visual injury on 0 to 100 scale (0 no effect, 100 complete control), approx. 10 d, read-out: Blackgrass plant response rating) was 20% and the pest or weed control at 31 g/ha ([3]; Postemergence, 31 g ai/ha, visual injury after approx. 10 d, 0 to 100 scale, 0 no effect, 100 complete control, read-out: Plant response rating, Blackgrass) was 0%. For the same compound, the plant injury at 125 g/ha ([4]; 125 g ai/ha, postemergence, visual injury on 0 to 100 scale (0 no effect, 100 complete control), approx. 10 d, read-out: Wheat plant response rating) was 20%, the plant injury at 31 g/ha ([4]; Postemergence, 31 g ai/ha, visual injury after approx. 10 d, 0 to 100 scale, 0 no effect, 100 complete control, read-out: Plant response rating, Wheat) was 0% and the pest or weed control at 125 g/ha ([5]; 125 g ai/ha, postemergence, visual injury on 0 to 100 scale (0 no effect, 100 complete control), approx. 10 d, read-out: Pigweed plant response rating) was 0%. The pest or weed control at 31 g/ha ([5]; Postemergence, 31 g ai/ha, visual injury after approx. 10 d, 0 to 100 scale, 0 no effect, 100 complete control, read-out: Plant response rating, Pigweed) was 0%, the pest or weed control at 125 g/ha ([6]; 125 g ai/ha, postemergence, visual injury on 0 to 100 scale (0 no effect, 100 complete control), approx. 10 d, read-out: Galium plant response rating) was 0% and the pest or weed control at 31 g/ha ([6]; Postemergence, 31 g ai/ha, visual injury after approx. 10 d, 0 to 100 scale, 0 no effect, 100 complete control, read-out: Plant response rating, Galium) was 0%. The plant injury at 125 g/ha (corn (Zea mays); 125 g ai/ha, postemergence, visual injury on 0 to 100 scale (0 no effect, 100 complete control), approx. 10 d, read-out: Corn plant response rating) was 0%, the Corn plant response rating (crop injury, 0 = no effect, 100 = complete kill) at 31 g/ha (corn (Zea mays); Postemergence, 31 g ai/ha, visual injury after approx. 10 d, 0 to 100 scale, 0 no effect, 100 complete control) was 0% and the pest or weed control at 125 g/ha ([7]; 125 g ai/ha, postemergence, visual injury on 0 to 100 scale (0 no effect, 100 complete control), approx. 10 d, read-out: Foxtail, Giant plant response rating) was 90%. It also gave a pest or weed control at 31 g/ha ([7]; Postemergence, 31 g ai/ha, visual injury after approx. 10 d, 0 to 100 scale, 0 no effect, 100 complete control, read-out: Plant response rating, Foxtail, Giant) of 80%, a pest or weed control at 125 g/ha ([8]; 125 g ai/ha, postemergence, visual injury on 0 to 100 scale (0 no effect, 100 complete control), approx. 10 d, read-out: Barnyardgrass plant response rating) of 100% and a pest or weed control at 31 g/ha ([8]; Postemergence, 31 g ai/ha, visual injury after approx. 10 d, 0 to 100 scale, 0 no effect, 100 complete control, read-out: Plant response rating, Barnyardgrass) of 90%. For the same compound, the pest or weed control at 125 g/ha ([9]; 125 g ai/ha, postemergence, visual injury on 0 to 100 scale (0 no effect, 100 complete control), approx. 10 d, read-out: Ragweed plant response rating) was 0%, the pest or weed control at 31 g/ha ([9]; Postemergence, 31 g ai/ha, visual injury after approx. 10 d, 0 to 100 scale, 0 no effect, 100 complete control, read-out: Plant response rating, Ragweed) was 0% and the pest or weed control at 31 g/ha ([10]; 31 g ai/ha, Preemergence) was 0%. It also gave a pest or weed control at 125 g/ha [10, 19] of 0%, a pest or weed control at 31 g/ha (Kochia (Kochia scoparia) [11]; 31 g ai/ha, Preemergence) of 0% and a pest or weed control at 125 g/ha (Kochia (Kochia scoparia) [11]; [19]) of 0%. It also gave a pest or weed control at 31 g/ha ([12]; 31 g ai/ha, Preemergence) of 0%, a pest or weed control at 125 g/ha [12, 19] of 0% and a pest or weed control at 31 g/ha ([13]; 31 g ai/ha, Preemergence) of 90%. It also gave a pest or weed control at 125 g/ha [13, 19] of 100%, a pest or weed control at 31 g/ha ([14]; 31 g ai/ha, Preemergence) of 90% and a pest or weed control at 125 g/ha [14, 19] of 100%. It also gave a pest or weed control at 31 g/ha ([15]; 31 g ai/ha, Preemergence) of 0%, a pest or weed control at 125 g/ha [15, 19] of 0% and a pest or weed control at 250 g/ha [16] of 0%. It also gave a pest or weed control at 250 g/ha [17] of 80%, a pest or weed control at 250 g/ha (rice (Oryra sativa)) of 15% and a pest or weed control at 250 g/ha [18] of 70%.
